In publication PMC8206213, “An L-2-hydroxyglutarate biosensor based on specific transcriptional regulator LhgR” (Nature Communications, 2021):
Several values for one entry are separate records, joined by “and”; a condition that tells them apart may be missing. Identical values can stand only once.

Key:
LHGFR0N7C [1] = experiment: Influence of other compounds on the response of purified LHGFR0N7C to L-2-HG; type: binding, Pseudomonas putida W619; conditions: Suppl. Fig. 9b; L-2-HG alone or with the compound; three replicates
Description: (§1) Purified L-2-HG biosensors and different compounds were diluted by 50 mM Tris-HCl buffer (pH 7.4), mixed together in a black 96-well plate at a volume ratio of 3:1, and the fluorescence intensities were measured using an EnSight microplate reader (PerkinElmer, USA) with excitation at 430 nm, emission at 485 nm (mTFP) and 528 nm (Venus). […] The [L-2-HG], Kd, and p refer to the L-2-HG concentration, apparent dissociation constant, and Hill slope, respectively. Emission spectra were recorded at 430 nm excitation, in steps of 2 nm. Excitation spectra were recorded using emission at 550 nm, excitation from 380 to 535 nm in steps of 2 nm.

LHGFR0N7C [2] = experiment: Specificity of purified LHGFR0N7C, emission ratio with 240 μM compounds; type: binding, Pseudomonas putida W619; conditions: 240 μM compound
Description: as §1

LhgR = experiment: EMSA, effect of compounds on LhgR binding to the lhgO promoter region F1; parameters: species or system Pseudomonas putida W619; conditions: 50 mM compound, 10 nM F1, 60 nM LhgR
Description: Electrophoretic mobility shift assays (EMSAs) were carried out using the DNA fragment (F1 or F2) and purified LhgR. The DNA fragments were first amplified by primer pairs F1-F/F1-R and F2-F/F2-R, respectively. Then, either fragment at a concentration of 10 nM DNA was incubated with LhgR (0–160 nM) in 20 μL EMSA binding buffer (10 mM Tris-HCl [pH 7.4], 50 mM KCl, 0.5 mM EDTA, 10% [vol/vol] glycerol, and 1 mM dithiothreitol [DTT]). The binding reactions were carried out at 30 °C for 30 min. Electrophoresis was performed on 6% native polyacrylamide gels at 4 °C and 170 V (constant voltage) for about 45 min, followed by staining with SYBR green I (TaKaRa, China) and photographing. Analysis of the interaction between lhgO promoter region (F1) and LHGFR was performed using the same procedure.
To characterize the effector of LhgR, purified LhgR was first incubated with L-lysine, 5-aminovalerate, glutarate, L-2-HG, D-2-HG, 2-KG, or succinate at 30 °C for 15 min, followed by incubation with the added DNA fragments at 30 °C for 30 min. The mixtures were subsequently subjected to electrophoresis.

LHGFR0N3C [3] = experiment: Influence of other compounds on the response of purified LHGFR0N3C to L-2-HG; type: binding, Pseudomonas putida W619; conditions: Suppl. Fig. 9a; L-2-HG alone or with the compound; three replicates
Description: as §1

LHGFR0N3C [4] = experiment: Specificity of purified LHGFR0N3C, emission ratio with 240 μM compounds; type: binding, Pseudomonas putida W619; conditions: 240 μM compound
Description: as §1

HEK293FT cells = experiment: Hypoxia-induced L-2-HG production in LHGFR-expressing HEK293FT cells with or without 5 mM DMαKG; type: cell-based, human; conditions: 5 mM, hypoxic conditions, 24 h
Description: HEK293FT cells were cultured in high-glucose Dulbecco’s modified eagle medium (DMEM) supplemented with 10% (vol/vol) fetal bovine serum (FBS), 100 units mL^−1 penicillin, and 100 μg mL^−1 streptomycin (all purchased from ThermoFisher, USA), and kept at 37 °C in humidified air containing 5% CO2. For hypoxia experiments, cells were kept in a compact O2 and CO2 subchamber controller (ProOx C21, BioSpherix, USA) at 2% O2, 5% CO2, and balanced with N2 for 24 h. For the construction of LHGFR expressing cell, HEK293FT cells were plated in 24-well plates so that they reached 70-90% confluency 24 h after plating, the medium was refreshed 2 h before transfection.
The preparation of cell suspensions and the measurement of emission ratios were performed using the same procedure. The background fluorescence was subtracted at each emission wavelength.

[5] = target: LhgR (Pseudomonas putida W619); experiment: SEC; gel filtration on Superdex 200 10/300 GL against protein mass standards, compared with SDS-PAGE; 50 mM sodium phosphate, 150 mM sodium chloride, pH 7.2

| Compound | Emission ratio (LHGFR0N7C [1]) | Emission ratio (LHGFR0N7C [2]) | Induction of emission ratio changes (LHGFR0N7C [2]) | Effect on LhgR binding to the lhgO promoter region F1 (LhgR) | Emission ratio (LHGFR0N3C [3]) | Emission ratio (LHGFR0N3C [4]) | Induction of emission ratio changes (LHGFR0N3C [4]) | Effect on emission ratio of LHGFR0N3C (HEK293FT cells) | stoichiometry N [5] |
| --- | --- | --- | --- | --- | --- | --- | --- | --- | --- |
| NCCCC[C@H](N)C(=O)O [L-Lysine, L-lysine] | 2.577 and 2.607 and 2.654 | 1.692 and 1.701 and 1.71 | None | observed only in the presence of L-2-HG | 2.026 and 2.06 and 2.101 | 1.377 and 1.382 and 1.394 | None |  |  |
| O=C(O)CCC(=O)O [Succinate, succinate] | 2.581 and 2.619 and 2.616 | 1.718 and 1.724 and 1.726 | None | observed only in the presence of L-2-HG | 2.013 and 2.0132 and 2.099 | 1.357 and 1.389 and 1.4025 | None |  |  |
| COC(=O)CCC(=O)C(=O)OC [dimethyl-2-ketoglutarate] |  |  |  |  |  |  |  | significantly increased the emission ratio of LHGFR0N3C under hypoxic conditions |  |
| LhgR (natural protein) |  |  |  |  |  |  |  |  | 2 |
